Reference: patent publication US20070066674A1, “Tricyclic imidzopyridines for use as gastric secretion inhibitors” (Altana Pharma AG, priority 2003, published 2007)

Test system: pentagastrin-stimulated acid secretion of the perfused rat stomach
Assay: Secretion-inhibiting action on the perfused rat stomach
Type: in vivo
Conditions: dose 1 μmol/kg i.d., anesthetized CD rat, intraduodenal administration
Text: In Table A which follows, the influence of the compounds of the formula 1 according to the invention and of their optical antipodes of the formula 2 on the pentagastrin-stimulated acid secretion of the perfused rat stomach after intraduodenal administration in vivo is shown.
The abdomen of anesthetized rats (CD rat, female, 200-250 g; 1.5 g/kg i.m. urethane) was opened after tracheotomy by a median upper abdominal incision and a PVC catheter was fixed transorally in the esophagus and another via the pylorus such that the ends of the tubes just projected into the gastric lumen. The catheter leading from the pylorus led outward into the right abdominal wall through a side opening.
After thorough rinsing (about 50-100 ml), warm (37° C.) physiological NaCl solution was continuously passed through the stomach (0.5 ml/min, pH 6.8-6.9; Braun-Unita I). The pH (pH meter 632, glass electrode EA 147; φ=5 mm, Metrohm) and, by titration with a freshly prepared 0.01 N NaOH solution to pH 7 (Dosimat 665 Metrohm), the secreted HCl were determined in the effluent in each case collected at an interval of 15 minutes.
The gastric secretion was stimulated by continuous infusion of […] (=1.65 ml/h) of i.v. pentagastrin (left femoral vein) about 30 min after the end of the operation (i.e. after determination of 2 preliminary fractions). The substances to be tested were administered intraduodenally in a 2.5 ml/kg liquid volume 60 min after the start of the continuous pentagastrin infusion. The body temperature of the animals was kept at a constant 37.8-38° C. by infrared irradiation and heat pads (automatic, stepless control by means of a rectal temperature sensor).

Compound | Inhibition of acid secretion (%)
Cc1nc2c3c(c(C(=O)N(C)C)cn2c1C)CC[C@@H](c1ccccc1)O3.O=C(O)C(O)C(O)C(=O)O [Example 1, (9S)-2,3-Dimethyl-9-phenyl-7H8,9dihydro-pyrano[2,3-c]-imidazo[1,2-a]pyridine-6-carboxylic acid dimethylamide (R,R)-tartrate] | 100%
Cc1nc2c3c(c(C(=O)N(C)C)cn2c1C)CC[C@@H](c1ccccc1)O3 [Example 2, (9S)-2,3-Dimethyl-9-phenyl-7H-8,9-dihydro-pyrano[2,3c]-imidazo[1,2-a]pyridine-6-carboxylic acid dimethylamide] | 100%
CNC(=O)c1cn2c(C)c(C)nc2c2c1CC[C@@H](c1ccccc1)O2 [Example 7, (9S)-2,3-Dimethyl-9-phenyl-7H-8,9-dihydro-pyrano[2,3-c]-imidazo[1,2-a]pyridine-6-carboxylic acid methylamide] | 100%
Cc1ccccc1[C@@H]1CCc2c(C(=O)N(C)C)cn3c(C)c(C)nc3c2O1 [Example 9, (9S)-2,3-Dimethyl-9-(2-methylphenyl)-7H-8,9-dihydro-pyrano[2,3-c]-imidazo[1,2-a]pyridine-6-carboxylic acid dimethylamide] | 100%
Cc1nc2c3c(c(C(=O)N(C)C)cn2c1C)CC[C@@H](c1ccccc1F)O3 [Example 10, (9S)-9-(2-Fluorophenyl)-2,3-dimethyl-7H-8,9-dihydro-pyrano[2,3-c]-imidazo[1,2-a]pyridine-6-carboxylic acid dimethylamide] | 100%
Cc1nc2c3c(c(C(=O)N(C)C)cn2c1C)CC[C@@H](c1ccc(F)cc1)O3 [Example 11, (9S)-9-(4-Fluorophenyl)-2,3-dimethyl-7H-8,9-dihydro-pyrano[2,3-c]-imidazo[1,2-a]pyridine-6-carboxylic acid dimethylamide] | 100%
Cc1ccccc1[C@H]1CCc2c(C(=O)N(C)C)cn3c(C)c(C)nc3c2O1 [I, (9R)-2,3-Dimethyl-9-(2-methylphenyl)-7H-8,9-dihydro-pyrano[2,3-c]-Imidazo[1,2-a]pyridine-6-carboxylic acid dimethylamide] | <50%
Cc1nc2c3c(c(C(=O)N(C)C)cn2c1C)CC[C@H](c1ccc(F)cc1)O3 [K, (9R)-9-(4-Fluorophenyl)-2,3dimethyl-7H-8,9-dihydro-pyrano[2,3-c]-imidazo[1,2-a]pyridine-6-carboxylic acid dimethylamide] | <40%

Same assay, conditions: dose 2 μmol/kg i.d., anesthetized CD rat, intraduodenal administration

Compound | Inhibition of acid secretion (%)
Cc1nc2c3c(c(C(N)=O)cn2c1C)CC[C@@H](c1ccccc1)O3 [Example 8, (9S)-2,3-Dimethyl-9-phenyl-7H-8,9-dihydro-pyrano[2,3c]-imidazo[1,2-a]pyridine-6-carboxylic acid amide] | 100%

Same assay, conditions: dose 3 μmol/kg i.d., anesthetized CD rat, intraduodenal administration

Compound | Inhibition of acid secretion (%)
Cc1nc2c3c(c(C(=O)N(C)C)cn2c1C)CC[C@H](c1ccccc1)O3.O=C(O)C(O)C(O)C(=O)O [A, (9R)2,3-Dimethyl-9-phenyl-7H-8,9-dihydro-pyrano[2,3-c]-imidazo[1,2-a]pyridine-6-carboxylic acid dimethylamide (S,S)-tartrate] | <40%
Cc1nc2c3c(c(C(=O)N(C)C)cn2c1C)CC[C@H](c1ccccc1)O3 [B, (9R)-2,3-Dimethyl-9-phenyl-7H-8,9-dihydro-pyrano[2,3-c]-imidazo[1,2-a]pyridine-6-carboxylic acid dimethylamide] | <40%
Cc1nc2c3c(c(C(=O)N(C)C)cn2c1Br)CC[C@H](c1ccccc1)O3 [D, (9R)-3-Bromo-2-methyl-9-phenyl-7H-8,9-dihydro-pyrano[2,3-c]-imidazo[1,2-a]pyridine-6-carboxylic acid dimethylamide] | <40%
CCc1c(C)nc2c3c(c(C(=O)N(C)C)cn12)CC[C@H](c1ccccc1)O3 [E, (9R)-3-Ethyl-2-methyl-9-phenyl-7H-8,9-dihydro-pyrano[2,3-c]-imidazo[1,2-a]pyridine-6-carboxylic acid dimethylamide] | <30%
Cc1nc2c3c(c(C(=O)N(C)C)cn2c1Br)CC[C@@H](c1ccccc1)O3 [Example 4, (9S)-3Bromo-2-methyl-9-phenyl-7H-8,9-dihydro-pyrano[2,3-c]-imidazo[1,2-a]pyridine-6-carboxylic acid dimethylamide] | >60%
CCc1c(C)nc2c3c(c(C(=O)N(C)C)cn12)CC[C@@H](c1ccccc1)O3 [Example 5, (9S)-3-Ethyl-2-methyl-9-phenyl-7H-8,9-dihydro-pyrano[2,3c]-imidazo[1,2-a]pyridine-6-carboxylic acid dimethylamide] | >70%
Cc1nc2c3c(c(C(=O)N4CCCC4)cn2c1C)CC[C@@H](c1ccccc1)O3 [Example 6, (9S)-(2,3-Dimethyl-9-phenyl-7H-8,9-dihydro-pyrano[2,3c]-imidazo[1,2-a]pyridin-6-yl)-pyrrolidin-1-yl methanone] | 100%
Cc1nc2c3c(c(C(=O)N(C)C)cn2c1C)CC[C@@H](c1cccs1)O3 [Example 12, (9S)-2,3-Dimethyl-9-thiophen-2-yl-7H-8,9-dihydro-pyrano[2,3-c]-imidazo[1,2-a]pyridine-6-carboxylic acid dimethylamide] | 100%
COCc1cn2c(C)c(C)nc2c2c1CC[C@@H](c1ccccc1)O2 [Example 13, (9S)-6-Methoxymethyl-2,3-dimethyl-9-phenyl-7H-8,9-dihydro-pyrano[2,3-c]-imidazo[1,2-a]pyridine] | 100%
Cc1nc2c3c(c(C(=O)N4CCCC4)cn2c1C)CC[C@H](c1ccccc1)O3 [F, (9R)-(2,3-Dimethyl-9-phenyl-7H-8,9-dihydro-pyrano[2,3-c]-imidazo[1,2-a]pyridin-6-yl)-pyrrolidin-1-yl methanone] | <40%
CNC(=O)c1cn2c(C)c(C)nc2c2c1CC[C@H](c1ccccc1)O2 [G, (9R)-2,3-Dimethyl-9-phenyl-7H-8,9-dihydro-pyrano[2,3-c]-imidazo[1,2-a]pyridine-6-carboxylic acid methylamide] | <40%
Cc1nc2c3c(c(C(N)=O)cn2c1C)CC[C@H](c1ccccc1)O3 [H, (9R)-2,3-Dimethyl-9-phenyl-7H-8,9-dihydro-pyrano[2,3-c]-imidazo[1,2-a]pyridine-6-carboxylic acid amide] | <40%
Cc1nc2c3c(c(C(=O)N(C)C)cn2c1C)CC[C@H](c1ccccc1F)O3 [J, (9R)-9-(2-Fluorophenyl)-2,3-dimethyl-7H-8,9-dihydro-pyrano[2,3c]-imidazo[1,2-a]pyridine-6-carboxylic acid dimethylamide] | <50%

Same assay, conditions: dose 6 μmol/kg i.d., anesthetized CD rat, intraduodenal administration

Compound | Inhibition of acid secretion (%)
Cc1nc2c3c(c(C(=O)N(C)C)cn2c1CO)CC[C@H](c1ccccc1)O3 [C, (9R)-3-Hydroxymethyl-2-methyl-9-phenyl-7H-8,9-dihydro-pyrano[2,3c]-imidazo[1,2-a]pyridine-6-carboxylic acid dimethylamide] | <30%
Cc1nc2c3c(c(C(=O)N(C)C)cn2c1CO)CC[C@@H](c1ccccc1)O3 [Example 3, (9S)-3-Hydroxymethyl-2-methyl-9-phenyl-7H-8,9-dihydro-pyrano[2,3-c]-imidazo[1,2-a]pyridine-6-carboxylic acid dimethylamide] | >50%
